Biological target: T1, PKM2 (pyruvate kinase M2) (Homo sapiens, UniProt P14618)
T1 construct: gene PKM; recombinant human PKM2 (Sigma-Aldrich #SAE0021)
Assay: LDH-coupled PKM2 activity assay; confirmed by ATP production (CellTiter-Glo)
Format: biochemical

T1 sequence (P14618 2-531): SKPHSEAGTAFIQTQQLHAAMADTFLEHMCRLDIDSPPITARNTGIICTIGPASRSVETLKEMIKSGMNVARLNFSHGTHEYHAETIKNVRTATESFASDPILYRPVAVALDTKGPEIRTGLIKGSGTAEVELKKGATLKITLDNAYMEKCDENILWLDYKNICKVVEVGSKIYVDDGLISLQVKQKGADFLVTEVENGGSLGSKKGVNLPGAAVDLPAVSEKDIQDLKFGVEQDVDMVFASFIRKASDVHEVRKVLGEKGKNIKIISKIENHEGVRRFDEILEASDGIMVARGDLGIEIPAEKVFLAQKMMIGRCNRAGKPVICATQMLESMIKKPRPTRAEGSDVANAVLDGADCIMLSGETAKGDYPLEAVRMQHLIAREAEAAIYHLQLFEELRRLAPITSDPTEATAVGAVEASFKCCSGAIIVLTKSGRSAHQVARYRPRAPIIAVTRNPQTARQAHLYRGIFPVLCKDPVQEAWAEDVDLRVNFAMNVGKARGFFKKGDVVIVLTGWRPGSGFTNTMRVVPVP

methyl benzyl((4-chlorophenyl)(3-((methoxycarbonyl)oxy)-1,4-dioxo-1,4-dihydronaphthalen-2-yl)methyl)carbamate [MB-6a]
IC50: 1040 nM

Source: article PMC11673335, “Mannich Base Derived from Lawsone Inhibits PKM2 and Induces Neoplastic Cell Death” (Biomedicines, 2024)
